Test results from US11807644B2 (PMV Pharmaceuticals, Inc., priority 2020, dated 2023).

Biological target: T1, recombinant His-tag Y220C p53 DBD protein (Homo sapiens, UniProt P04637, Y220C)
T1 construct: recombinant His-tag Y220C p53 DBD protein (amino acids #˜94-312)
Test: In vitro DNA binding activity assay (TR-FRET): binding of His-tag Y220C p53 DBD to biotin-labeled consensus DNA
Format: biochemical
Settings: SC150 = concentration to increase DNA binding by […], His-tag Y220C p53 DBD, biotin-labeled consensus DNA

Y220C SC150 (μM) | SMILES
* (* = 0 μM ≤ SC150 < 0.1 μM) | COC(C)(C)Cn1ccc(C(=O)NCc2nc(-c3cc4c(N[C@@H]5CCN(C)C[C@@H]5F)cccc4n3CC(F)(F)F)no2)c1 [Compound 251B, N-{[3-(4-{[(3S,4R)-3-fluoro-1-methylpiperidin-4-yl]amino}-1-(2,2,2-trifluoroethyl)-1H-indol-2-yl)-1,2,4-oxadiazol-5-yl]methyl}-1-(2-methoxy-2-methylpropyl)-1H-pyrrole-3-carboxamide]
* (* = 0 μM ≤ SC150 < 0.1 μM) | CN1CC[C@@H](Nc2cccc3c2cc(-c2noc(CNC(=O)c4ccn(CC(C)(C)O)c4)n2)n3CC(F)(F)F)[C@@H](F)C1 [Compound 252B, N-{[3-(4-{[(3S,4R)-3-fluoro-1-methylpiperidin-4-yl]amino}-1-(2,2,2-trifluoroethyl)-1H-indol-2-yl)-1,2,4-oxadiazol-5-yl]methyl}-1-(2-hydroxy-2-methylpropyl)-1H-pyrrole-3-carboxamide]
* (* = 0 μM ≤ SC150 < 0.1 μM) | COC(C)Cn1ccc(C(=O)NCc2nc(-c3cc4c(N[C@@H]5CCN(C)C[C@@H]5F)cccc4n3CC(F)(F)F)no2)c1 (stereo partly drawn) [Compound 253B, N-{[3-(4-{[(3S,4R)-3-fluoro-1-methylpiperidin-4-yl]amino}-1-(2,2,2-trifluoroethyl)-1H-indol-2-yl)-1,2,4-oxadiazol-5-yl]methyl}-1-(2-methoxypropyl)-1H-pyrrole-3-carboxamide]
* (* = 0 μM ≤ SC150 < 0.1 μM) | CN1CC[C@@H](Nc2cccc3c2cc(-c2noc(CNC(=O)c4ccc5ccn(C)c5c4)n2)n3CC(F)(F)F)[C@@H](F)C1 [Compound 254B, N-{[3-(4-{[(3S,4R)-3-fluoro-1-methylpiperidin-4-yl]amino}-1-(2,2,2-trifluoroethyl)-1H-indol-2-yl)-1,2,4-oxadiazol-5-yl]methyl}-1-methyl-1H-indole-6-carboxamide]
* (* = 0 μM ≤ SC150 < 0.1 μM) | CC(C)n1cc(C(=O)NCc2nc(-c3cc4c(N[C@@H]5CCN(C)C[C@@H]5F)cccc4n3CC(F)(F)F)no2)cn1 [Compound 255B, N-{[3-(4-{[(3S,4R)-3-fluoro-1-methylpiperidin-4-yl]amino}-1-(2,2,2-trifluoroethyl)-1H-indol-2-yl)-1,2,4-oxadiazol-5-yl]methyl}-1-(propan-2-yl)-1H-pyrazole-4-carboxamide]
* (* = 0 μM ≤ SC150 < 0.1 μM) | CN1CC[C@@H](Nc2cccc3c2cc(-c2noc(CNC(=O)c4ccc(N5CCC(F)(F)CC5)cc4)n2)n3CC(F)(F)F)[C@@H](F)C1 [Compound 256B, 4-(4,4-difluoropiperidin-1-yl)-N-{[3-(4-{[(3S,4R)-3-fluoro-1-methylpiperidin-4-yl]amino}-1-(2,2,2-trifluoroethyl)-1H-indol-2-yl)-1,2,4-oxadiazol-5-yl]methyl}benzamide]
* (* = 0 μM ≤ SC150 < 0.1 μM) | CC(C)n1cncc1C(=O)NCc1nc(-c2cc3c(N[C@@H]4CCN(C)C[C@@H]4F)cccc3n2CC(F)(F)F)no1 [Compound 257B, N-{[3-(4-{[(3S,4R)-3-fluoro-1-methylpiperidin-4-yl]amino}-1-(2,2,2-trifluoroethyl)-1H-indol-2-yl)-1,2,4-oxadiazol-5-yl]methyl}-1-(propan-2-yl)-1H-imidazole-5-carboxamide]
* (* = 0 μM ≤ SC150 < 0.1 μM) | CN1CC[C@@H](Nc2cccc3c2cc(-c2noc(CNC(=O)c4ccc5[nH]ccc5c4)n2)n3CC(F)(F)F)[C@@H](F)C1 [Compound 258B, N-{[3-(4-{[(3S,4R)-3-fluoro-1-methylpiperidin-4-yl]amino}-1-(2,2,2-trifluoroethyl)-1H-indol-2-yl)-1,2,4-oxadiazol-5-yl]methyl}-1H-indole-5-carboxamide]
* (* = 0 μM ≤ SC150 < 0.1 μM) | CN1CC[C@@H](Nc2cccc3c2cc(-c2noc(CNC(=O)c4ccc5c(ccn5C)c4)n2)n3CC(F)(F)F)[C@@H](F)C1 [Compound 259B, N-{[3-(4-{[(3S,4R)-3-fluoro-1-methylpiperidin-4-yl]amino}-1-(2,2,2-trifluoroethyl)-1H-indol-2-yl)-1,2,4-oxadiazol-5-yl]methyl}-1-methyl-1H-indole-5-carboxamide]
* (* = 0 μM ≤ SC150 < 0.1 μM) | CN1CC[C@@H](Nc2cccc3c2cc(-c2noc(CNC(=O)c4ccc(N5CCOCC5)cc4)n2)n3CC(F)(F)F)[C@@H](F)C1 [Compound 260B, N-{[3-(4-{[(3S,4R)-3-fluoro-1-methylpiperidin-4-yl]amino}-1-(2,2,2-trifluoroethyl)-1H-indol-2-yl)-1,2,4-oxadiazol-5-yl]methyl}-4-(morpholin-4-yl)benzamide]
* (* = 0 μM ≤ SC150 < 0.1 μM) | CN1CC[C@@H](Nc2cccc3c2cc(-c2noc(CNC(=O)c4cccc(N5CCOCC5)c4)n2)n3CC(F)(F)F)[C@@H](F)C1 [Compound 262B, N-{[3-(4-{[(3S,4R)-3-fluoro-1-methylpiperidin-4-yl]amino}-1-(2,2,2-trifluoroethyl)-1H-indol-2-yl)-1,2,4-oxadiazol-5-yl]methyl}-3-(morpholin-4-yl)benzamide]
* (* = 0 μM ≤ SC150 < 0.1 μM) | CN1CC[C@@H](Nc2cccc3c2cc(-c2noc(CNC(=O)c4cccc(N5CCCC5)c4)n2)n3CC(F)(F)F)[C@@H](F)C1 [Compound 263B, N-{[3-(4-{[(3S,4R)-3-fluoro-1-methylpiperidin-4-yl]amino}-1-(2,2,2-trifluoroethyl)-1H-indol-2-yl)-1,2,4-oxadiazol-5-yl]methyl}-3-(pyrrolidin-1-yl)benzamide]
* (* = 0 μM ≤ SC150 < 0.1 μM) | CN(C)C[C@@H]1C[C@H]1C(=O)NCc1nc(-c2cc3c(N[C@@H]4CCN(C)C[C@@H]4F)cccc3n2CC(F)(F)F)no1 [Compound 264B, (1R,2R)-2-[(dimethylamino)methyl]-N-{[3-(4-{[(3S,4R)-3-fluoro-1-methylpiperidin-4-yl]amino}-1-(2,2,2-trifluoroethyl)-1H-indol-2-yl)-1,2,4-oxadiazol-5-yl]methyl}cyclopropane-1-carboxamide]
* (* = 0 μM ≤ SC150 < 0.1 μM) | CN1CC[C@@H](Nc2cccc3c2cc(-c2noc(CNC(=O)[C@@H]4C[C@H]4CN4CCCC4)n2)n3CC(F)(F)F)[C@@H](F)C1 [Compound 265B, (1R,2R)-N-{[3-(4-{[(3S,4R)-3-fluoro-1-methylpiperidin-4-yl]amino}-1-(2,2,2-trifluoroethyl)-1H-indol-2-yl)-1,2,4-oxadiazol-5-yl]methyl}-2-[(pyrrolidin-1-yl)methyl]cyclopropane-1-carboxamide]
* (* = 0 μM ≤ SC150 < 0.1 μM) | Cc1c[nH]c2ccc(C(=O)NCc3nc(-c4cc5c(N[C@@H]6CCN(C)C[C@@H]6F)cccc5n4CC(F)(F)F)no3)cc12 [Compound 266B, N-{[3-(4-{[(3S,4R)-3-fluoro-1-methylpiperidin-4-yl]amino}-1-(2,2,2-trifluoroethyl)-1H-indol-2-yl)-1,2,4-oxadiazol-5-yl]methyl}-3-methyl-1H-indole-5-carboxamide]
* (* = 0 μM ≤ SC150 < 0.1 μM) | CN1CC[C@@H](Nc2cccc3c2cc(-c2noc(CNC(=O)c4ccc5cc[nH]c5c4)n2)n3CC(F)(F)F)[C@@H](F)C1 [Compound 267B, N-{[3-(4-{[(3S,4R)-3-fluoro-1-methylpiperidin-4-yl]amino}-1-(2,2,2-trifluoroethyl)-1H-indol-2-yl)-1,2,4-oxadiazol-5-yl]methyl}-1H-indole-6-carboxamide]
